According to patent publication US6703362B1, “Random peptides that bind to gastro-intestinal tract (GIT) transport receptors and related methods” (Cytogen Corporation, priority 1997, dated 2004):
Square brackets hold non-standard residues; d marks the D form. Peptide text beside a SMILES is read from it. * marks the point of attachment. Dansyl = CN(C)c1cccc2c(S(=O)(=O)*)cccc12

Experiments:
fixed Caco-2 cells = assay: Inhibition of GST-peptide fusion binding to fixed Caco-2 cells by synthetic peptides; conditions: peptide from 100 μg/ml serially diluted; GST fusion 10 μg
From the text: Caco-2 cells were fixed, treated with phenylhydrazine and blocked as described above. […] GST-PAX2 binding was inhibited by ZElan032, ZElan033, and ZElan035.

[1] = Peptide stability in simulated intestinal fluid (SIF); type: in vitro ADME; conditions: for Rel. Stab.: rank, 1 = most stable to SIF; for remaining at 1 min, 1 mg/ml / remaining at 1 h, 1 mg/ml / remaining at 3 h, 1 mg/ml / remaining at 24 h, 1 mg/ml: simulated intestinal fluid (pancreatin), pH 7.5, 10,000 fold diluted SIF, 37° C.; for remaining at 1 min, 1 mg/ml: read-out: Percent Remaining at: 1 m; for remaining at 1 h, 1 mg/ml: read-out: Percent Remaining at: 1 h; for remaining at 3 h, 1 mg/ml: read-out: Percent Remaining at: 3 h; for remaining at 24 h, 1 mg/ml: read-out: Percent Remaining at: 24 h
Protocol: The relative stability for ZElanO3l, ZElanO53 and ZElan054 was determined in simulated intestinal fluid (SIF) SIF was made by dissolving 100 mg of pancreatin (Sigma cat#P-1625, lot# 122H0812)in 8.4 ml of phosphate stock solution, adjusting the pH to 7.5 with 0.2N NaOH and adjusting the volume to 10 ml with water.
Peptide (3.25 mg) was dissolved in 3.25 ml of 10,000 fold diluted SIF solution at 37° C. Aliquots (0.7 ml) of the digestion solution were then withdrawn at <1 min, 1 h, 3 h, and 21 h or 24 h. The samples were quickly passed through a syringe filter (Millipore Millex-GV 0.22 μm, part# SLGV025LS, lot# H2BM95250) and 300 μL of the filtered solution was immediately injected onto a Hewlett-Packard HPLC system equipped with a C-8 column (Applied Biosystems column and guard column: column-p/n 0711-0023 Spheri-5 ODS 5 μm, 220×4.6 mm). The products were eluted at 1.5 ml/min using an acetonitrile-water gradient. The major fluorescent peaks were collected, lyopholized and identified by MS analysis.

[2] = tested on: P100 membrane fractions derived from Caco-2 cells; assay: Dansylated peptide ELISA: relative binding of PAX2 and HAX42 peptides to P100 (ratio to ZElan021); conditions: ratio to ZElan021 = 1.00; for Binding value at 20 μg/ml / Binding value at 50 μg/ml: PAX2 peptides; for Binding value at 25 μg/ml: HAX42 peptides
Protocol: The peptides and proteins were analyzed by a dansylated peptide ELISA method in which 96 well plates were coated overnight at 4° C. with 100 μl/well coating protein (normally 100 μg/ml P100 membrane fraction) in 0.05M carbonate buffer pH9.6. Nonspecific binding was blocked using 200 μl/well, 2% Marvel/PBS for 2 hours at 37° C. prior to incubation with dansylated peptides. The plates were washed three times with PBS/0.05% Tween 20 and after each subsequent incubation step. […] A buffer blank control was included to ensure that background binding to plastic was not due to the antibodies used in the assay system. […] The plates were then incubated with an anti-mouse X-HRP conjugated antibody (Southern Biotech 1060-05) at a 1:10,000 dilution in blocking solution, 100 μl/well for 1 hour at room temperature. Plates were developed using 75 μl/well Bionostics TMB substrate and incubated for approximately 10 minutes. The developing reaction was stopped using Bionostics Red Stop solution (25 μl/well), and the optical density of the plates was read at 650nm.

[3] = tested on: fixed Caco-2 or C2BBe1 cells; assay: ELISA of GST fusion proteins on fixed Caco-2 or C2BBe1 cells; type: binding
Protocol: Fixed Caco-2, C2BBe1, and A431 cell plates were prepared by growing cells on tissue culture treated microtiter plates. When cells were confluent, plates were fixed with 10% formaldehyde, washed twice with PBS and stored with 0.5%BSA-PBS at −20° C. […] The standard ELISA procedure was followed at this point.
The standard ELISA procedure was modified as follows. GST proteins were diluted to an appropriate concentration in PBS containing lkBSA and 0.05% Tween20 (1%BPT), titered and incubated one hour at room temperature. Following five washes an anti-GST monoclonal antibody was added (Sigma, St. Louis Clone GST-2 diluted 1:10,000 in 1%BPT) and incubated one hour. After five more washes goat anti-mouse IgG2b-HRP was added (Southern Biotechnology Associates Inc., Birmingham, Ala., diluted 1:4000 in 1%BPT) and incubated one hour. After five washes plates were developed with TMB peroxidase substrate (Kirkegard and Perry, Gaithersburg, Md.). All data is presented with background binding subtracted.

Row | Molecule | inhibition of GST-P31 binding (fixed Caco-2 cells) | Binding value at 20 μg/ml ([2]; first 20 μg/ml column) | Binding value at 50 μg/ml ([2]; first 50 μg/ml column) | Binding value at 20 μg/ml ([2]; second 20 μg/ml column) | Binding value at 50 μg/ml ([2]; second 50 μg/ml column) | other results
1 | C[C@H](NC(=O)[C@H](CC(N)=O)NC(=O)[C@H](CCC(=O)O)NC(=O)[C@@H](N)CCCCNS(=O)(=O)c1cccc2c(N(C)C)cccc12)C(=O)N[C@@H](CC(N)=O)C(=O)N[C@H](C(=O)N[C@@H](CCCNC(=N)N)C(=O)N[C@@H](CCCCN)C(=O)N[C@@H](CO)C(=O)N[C@@H](CO)C(=O)N[C@@H](CCCNC(=N)N)C(=O)N[C@@H](CO)C(=O)N[C@@H](CC(N)=O)C(=O)N1CCC[C@H]1C(=O)N[C@@H](CCCNC(=N)N)C(=O)NCC(=O)N[C@@H](CCCNC(=N)N)C(=O)N[C@@H](CCCNC(=N)N)C(=O)N[C@@H](Cc1c[nH]cn1)C(=O)N1CCC[C@H]1C(=O)NCC(N)=O)[C@@H](C)O [ZElan028] (H-K(Dansyl)ENANTRKSSRSNPRGRRHPG-NH2) | inhibited | – | – | – | – | –
2 | C[C@@H](O)[C@H](NC(=O)[C@@H](N)CCCCNS(=O)(=O)c1cccc2c(N(C)C)cccc12)C(=O)N[C@@H](CCCNC(=N)N)C(=O)N[C@@H](CCCCN)C(=O)N[C@@H](CO)C(=O)N[C@@H](CO)C(=O)N[C@@H](CCCNC(=N)N)C(=O)N[C@@H](CO)C(=O)N[C@@H](CC(N)=O)C(=O)N1CCC[C@H]1C(=O)N[C@@H](CCCNC(=N)N)C(=O)NCC(=O)N[C@@H](CCCNC(=N)N)C(=O)N[C@@H](CCCNC(=N)N)C(=O)N[C@@H](Cc1c[nH]cn1)C(=O)N1CCC[C@H]1C(=O)NCC(N)=O [ZElan031] (H-K(Dansyl)TRKSSRSNPRGRRHPG-NH2) | inhibited | – | – | – | – | Rel. Stab. [1]: 3; remaining at 1 min, 1 mg/ml [1]: 100%; remaining at 1 h, 1 mg/ml [1]: 38.7%; remaining at 3 h, 1 mg/ml [1]: 0%; remaining at 24 h, 1 mg/ml [1]: 0%
3 | CC(C)C[C@H](NC(=O)[C@H](CCCNC(=N)N)NC(=O)[C@H](CCCNC(=N)N)NC(=O)[C@H](CC(N)=O)NC(=O)[C@H](Cc1c[nH]cn1)NC(=O)[C@H](CO)NC(=O)[C@H](CO)NC(=O)[C@H](Cc1c[nH]cn1)NC(=O)[C@H](CCCCN)NC(=O)[C@H](C)NC(=O)[C@H](CC(N)=O)NC(=O)[C@@H](NC(=O)[C@@H](N)CCCCNS(=O)(=O)c1cccc2c(N(C)C)cccc12)[C@@H](C)O)C(=O)N[C@@H](CCCNC(=N)N)C(=O)N[C@H](C(=O)N[C@@H](CCCNC(=N)N)C(=O)N[C@@H](CO)C(=O)N[C@@H](CCCNC(=N)N)C(=O)N1CCC[C@H]1C(=O)N[C@@H](CC(N)=O)C(N)=O)[C@@H](C)O [ZElan032] (H-K(Dansyl)TNAKHSSHNRRLRTRSRPN-NH2) | – | 1.43 | 0.95 | 2.87 | 1.06 | inhibition of GST-PAX2 binding (fixed Caco-2 cells): inhibited
4 | CC(C)C[C@H](NC(=O)[C@H](CCCNC(=N)N)NC(=O)[C@H](CCCNC(=N)N)NC(=O)[C@H](CC(N)=O)NC(=O)[C@H](Cc1c[nH]cn1)NC(=O)[C@H](CO)NC(=O)[C@H](CO)NC(=O)[C@H](Cc1c[nH]cn1)NC(=O)[C@H](CCCCN)NC(=O)[C@H](C)NC(=O)[C@H](CC(N)=O)NC(=O)[C@@H](NC(=O)[C@@H](N)CCCCNS(=O)(=O)c1cccc2c(N(C)C)cccc12)[C@@H](C)O)C(=O)N[C@@H](CCCNC(=N)N)C(=O)N[C@H](C(=O)N[C@@H](CCCNC(=N)N)C(N)=O)[C@@H](C)O [ZElan033] (H-K(Dansyl)TNAKHSSHNRRLRTR-NH2) | – | 0.35 | 0.80 | 1.57 | 0.66 | inhibition of GST-PAX2 binding (fixed Caco-2 cells): inhibited
5 | CC(C)C[C@H](NC(=O)[C@H](CCCNC(=N)N)NC(=O)[C@H](CCCNC(=N)N)NC(=O)[C@H](CC(N)=O)NC(=O)[C@H](Cc1c[nH]cn1)NC(=O)[C@H](CO)NC(=O)[C@H](CO)NC(=O)[C@@H](N)CCCCNS(=O)(=O)c1cccc2c(N(C)C)cccc12)C(=O)N[C@@H](CCCNC(=N)N)C(=O)N[C@H](C(=O)N[C@@H](CCCNC(=N)N)C(N)=O)[C@@H](C)O [ZElan035] (H-K(Dansyl)SSHNRRLRTR-NH2) | – | 0.12 | 0.81 | 0.43 | 0.77 | inhibition of GST-PAX2 binding (fixed Caco-2 cells): inhibited
6 | C[C@@H](O)[C@H](NC(=O)[C@@H](N)CCCCNS(=O)(=O)c1cccc2c(N(C)C)cccc12)C(=O)N[C@@H](CCCNC(=N)N)C(=O)N[C@@H](CCCCN)C(=O)N[C@@H](CO)C(=O)N[C@@H](CO)C(=O)N[C@H](CCCNC(=N)N)C(=O)N[C@@H](CO)C(=O)N[C@@H](CC(N)=O)C(=O)N1CCC[C@H]1C(=O)N[C@@H](CCCNC(=N)N)C(=O)NCC(=O)N[C@H](CCCNC(=N)N)C(=O)N[C@@H](CCCNC(=N)N)C(=O)N[C@@H](Cc1c[nH]cn1)C(=O)N1CCC[C@H]1C(=O)NCC(N)=O [ZElan054, H2N—K(dns)TRKSSrSNPRGrRHPG—CONH2] (H-K(Dansyl)TRKSS[dR]SNPRG[dR]RHPG-NH2) | inhibited | – | – | – | – | Rel. Stab. [1]: 2; remaining at 1 min, 1 mg/ml [1]: 97.4%; remaining at 1 h, 1 mg/ml [1]: 58.2%; remaining at 3 h, 1 mg/ml [1]: 11.6%; remaining at 24 h, 1 mg/ml [1]: 2.7%
7 | C[C@@H](O)[C@H](NC(=O)[C@H](CO)NC(=O)[C@H](CC(N)=O)NC(=O)CNC(=O)[C@H](CC(N)=O)NC(=O)CNC(=O)[C@H](CS)NC(=O)[C@H](CS)NC(=O)[C@H](CC(N)=O)NC(=O)[C@H](Cc1ccc(O)cc1)NC(=O)[C@H](CC(=O)O)NC(=O)CNC(=O)[C@@H]1CCCN1C(=O)[C@H](CCC(=O)O)NC(=O)[C@@H](N)CCCCNS(=O)(=O)c1cccc2c(N(C)C)cccc12)C(=O)NCC(=O)O [ZElan090] (H-K(Dansyl)EPGDYNCCGNGNSTG-OH; C-terminus assumed) | – | – | – | – | – | Binding value at 25 μg/ml ([2]; first 25 μg/ml column): 2.06; Binding value at 25 μg/ml ([2]; second 25 μg/ml column): 1.54; Binding value at 25 μg/ml ([2]; third 25 μg/ml column): 2.16
8 | H-K(Dansyl)GRNHDVVSSNTHKSYRSPRSASYPRLSNDRTDRTEPAPSS-NH2 [ZElan083, reference compound] | – | 0.43 | 1.03 | 0.63 | 0.88 | –
9 | H-K(Dansyl)SARDSGPAEDGSRAVRLNGVENANTRKSSRSNPRGRRHPGG-NH2 [ZElan024] | inhibited | – | – | – | – | –
10 | H-K(Dansyl)SEANLDGRKSRYSSPRRNSSTRPRTSPNSVHARYPSTDHD-NH2 [ZElan026, reference compound] | – | – | – | – | – | inhibition of GST-HAX42 binding (fixed Caco-2 cells): inhibited
11 | H-K(Dansyl)SRANTDGRKSRYSSPRRNSSTEPRLSPNSVHARYPSTDHD-NH2 [ZElan038, reference compound] | – | – | – | – | – | inhibition of GST-HAX42 binding (fixed Caco-2 cells): inhibited
12 | gst-RGSTGTAGGERSGVLNLHTRDNASGSGFKPWYPSNRGHK [GST-5PAX5] | – | – | – | – | – | binding to fixed Caco-2 or C2BBe1 cells relative to GST control [3]: weak to moderate binding
13 | gst-SPCGGGSWGRFMQGGLFGGRTDGCGAHRNRTSASLEPPSSDY [GST-SNi34] | – | – | – | – | – | binding to fixed Caco-2 or C2BBe1 cells relative to GST control [3]: bound fixed Caco-2 or C2BBe1 cells
